This note sets out measurements from US5599953A, “C-glycoside analogues of N-(4-hydroxyphenyl)retinamide-O-glucuronide” (The Ohio State Research Foundation, priority 1995, dated 1997).

“Also recorded” adds a separate entry of the source. Read-outs that look alike come from different tables or passages of the source.

The nature of series [1]: Acid stability, 0.1N HCl at 37° C. for two hours. The series is classed as physicochemical. As for the experimental part:
Similarly, 1-(D-glucopyranosyluronosyl) retinamide and RAG were treated with 0.1N HCl at 37° C. for two hours.

Series [2] concerns DMBA-Induced Rat Mammary Tumors. In words: Effect on progression of DMBA-induced rat mammary tumors. The class given is in vivo. Conditions: 1 mmol/Kg in diet. The text has this: The control rats received DMBA intubation only and AIN-76A rat chow.
Series [3] addresses T1, human retinoic acid receptor γ (Homo sapiens, UniProt P13631).
T1 construct: made in house
T1 sequence (P13631 1-454): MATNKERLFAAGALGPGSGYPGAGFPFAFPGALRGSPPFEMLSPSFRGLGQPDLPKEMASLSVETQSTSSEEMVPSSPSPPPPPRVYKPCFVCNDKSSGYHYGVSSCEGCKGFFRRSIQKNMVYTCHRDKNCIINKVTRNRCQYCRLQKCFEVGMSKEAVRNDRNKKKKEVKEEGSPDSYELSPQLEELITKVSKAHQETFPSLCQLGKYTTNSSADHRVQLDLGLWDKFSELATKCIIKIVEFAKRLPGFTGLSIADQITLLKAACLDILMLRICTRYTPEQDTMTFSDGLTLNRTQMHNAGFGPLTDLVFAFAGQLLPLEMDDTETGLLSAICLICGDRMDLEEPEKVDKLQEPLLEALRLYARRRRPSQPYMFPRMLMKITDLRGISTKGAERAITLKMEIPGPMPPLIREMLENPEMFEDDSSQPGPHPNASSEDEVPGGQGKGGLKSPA
In words: Competition binding / retinoic acid binding, human retinoic acid receptor γ/BCV (FIG. 1). Conditions: 1.3 nM [3H]-retinoic acid.

The target of series [4] is T2, β-glucuronidase (Homo sapiens, UniProt P08236).
T2 sequence (P08236 23-651): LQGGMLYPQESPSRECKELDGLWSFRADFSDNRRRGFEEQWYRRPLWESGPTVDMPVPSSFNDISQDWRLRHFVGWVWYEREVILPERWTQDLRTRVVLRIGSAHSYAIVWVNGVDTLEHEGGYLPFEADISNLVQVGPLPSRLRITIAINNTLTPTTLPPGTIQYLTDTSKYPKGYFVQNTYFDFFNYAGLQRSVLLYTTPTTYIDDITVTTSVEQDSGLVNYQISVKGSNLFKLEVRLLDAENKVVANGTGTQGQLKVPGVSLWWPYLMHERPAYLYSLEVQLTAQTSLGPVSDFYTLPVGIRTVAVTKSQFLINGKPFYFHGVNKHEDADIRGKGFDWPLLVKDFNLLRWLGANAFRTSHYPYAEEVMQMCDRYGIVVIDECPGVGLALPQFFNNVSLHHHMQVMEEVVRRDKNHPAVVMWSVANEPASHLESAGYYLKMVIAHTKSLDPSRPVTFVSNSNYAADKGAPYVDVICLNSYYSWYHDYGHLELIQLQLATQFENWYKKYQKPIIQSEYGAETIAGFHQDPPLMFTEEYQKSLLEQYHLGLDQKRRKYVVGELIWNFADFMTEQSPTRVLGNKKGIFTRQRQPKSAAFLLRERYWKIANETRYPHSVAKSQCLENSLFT
In words: Stability toward β-glucuronidase mediated hydrolysis. The series is classed as in vitro ADME. The note with it: within twenty minutes. On the procedure: Similarly 1-(D-glucopyranosyluronosyl) retinamide and RAG were evaluated for their stability toward β-glucuronidase medicated hydrolysis under the same conditions as described above.

For series [5], the target named is T3, mRARα (Mus musculus, UniProt P11416).
T3 construct: made in house; host or cells: Spodoptera frugiperda insect cells, baculovirus (whole cell extract)
T3 sequence (P11416 1-462): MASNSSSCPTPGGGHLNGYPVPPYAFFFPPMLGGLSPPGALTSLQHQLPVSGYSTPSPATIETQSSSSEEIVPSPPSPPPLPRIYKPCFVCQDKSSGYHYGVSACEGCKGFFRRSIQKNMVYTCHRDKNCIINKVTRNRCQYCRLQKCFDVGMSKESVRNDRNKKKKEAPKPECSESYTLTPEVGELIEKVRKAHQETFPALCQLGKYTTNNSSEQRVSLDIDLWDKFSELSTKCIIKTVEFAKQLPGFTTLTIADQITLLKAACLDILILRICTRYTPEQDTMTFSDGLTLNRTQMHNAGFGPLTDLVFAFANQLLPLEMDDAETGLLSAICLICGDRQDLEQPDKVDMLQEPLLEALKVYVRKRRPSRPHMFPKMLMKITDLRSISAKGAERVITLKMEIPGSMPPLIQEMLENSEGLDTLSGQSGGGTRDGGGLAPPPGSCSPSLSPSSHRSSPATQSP
The series is described as follows: Drug competition with (3H)retinoic acid binding, mRARα. Conditions: read-out: percent reduction of binding of the (3H)retinoic acid, mRARα; 1 μM drug; 5 nM [3H]RA.

Series [6] has as its target T4, mRARγ (Mus musculus, UniProt P18911).
T4 construct: made in house; host or cells: Spodoptera frugiperda insect cells, baculovirus (whole cell extract)
T4 sequence (P18911 1-458): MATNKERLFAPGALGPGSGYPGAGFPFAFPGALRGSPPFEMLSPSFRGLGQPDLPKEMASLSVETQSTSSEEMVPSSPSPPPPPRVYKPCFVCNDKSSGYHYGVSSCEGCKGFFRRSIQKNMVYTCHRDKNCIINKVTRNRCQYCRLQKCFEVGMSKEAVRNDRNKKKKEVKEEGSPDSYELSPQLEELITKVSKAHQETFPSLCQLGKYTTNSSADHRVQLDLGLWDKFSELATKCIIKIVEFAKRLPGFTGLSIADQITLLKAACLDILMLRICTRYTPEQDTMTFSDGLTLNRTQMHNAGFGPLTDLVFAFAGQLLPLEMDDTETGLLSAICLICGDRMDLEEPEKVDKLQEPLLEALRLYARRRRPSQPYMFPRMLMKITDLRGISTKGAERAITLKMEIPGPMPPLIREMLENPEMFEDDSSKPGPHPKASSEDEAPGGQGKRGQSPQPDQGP
In words: Drug competition with (3H)retinoic acid binding, mRARγ. The note with it: read-out: percent reduction of binding of the (3H)retinoic acid, mRARγ; 1 μM drug; 5 nM [3H]RA.

Series [7] deals with MCF-7 cells. In words: Growth inhibition of MCF-7 human mammary tumor cells. The class given is cell-based. The note with it: for IC50: Homo sapiens, MCF7, 168 h, 7 days, read-out: ED50 for growth inhibition of MCF-7 cells; for growth inhibition of MCF-7 cells, in words: comparison of drugs. As for the experimental part:
The antiproliferative activity of the drugs in MCF-7 human mammary tumor cell culture models were determined.
The MCF-7 cells were obtained originally from the Michigan Cancer Foundation. The cells were routinely grown as monolayers in T-25 plastic tissue culture flasks from Falcon, in Oxnard, Calif. containing 5.0 mL of B-10 medium consisting of Minimum Essential Medium (MEM, Earle's Base) supplemented with 1.0 mM MEM non-essential amino acid, 2.0 mM 1-glutamine,10% fetal bovine serum (FBS), and antibiotics. Culture conditions included a humidified atmosphere of 5% CO2 at 37° C. One-half of the medium was replenished twice a week. Cells were harvested by trypsinization upon confluency. All variables were evaluated in triplicate.
For the growth inhibition assay the MCF-7 cells were plated in 24-well plates at a density of 1.5×10^4 cells/cm^2. […] Control cultures were treated with an equivalent volume of absolute ethanol. On day 7 the cells were harvested by trypsinization and viability was assessed by trypan blue exclusion according to Ueda, H. et al. Cancer 1980, 46, 2203-2209. Total cell counts were obtained using a hemocytometer as well as a the Coulter Counter.

Series [8] addresses T5, mRARβ (Mus musculus, UniProt P22605).
T5 construct: made in house; host or cells: Spodoptera frugiperda insect cells, baculovirus (whole cell extract)
T5 sequence (P22605 1-448 isoform P22605-3): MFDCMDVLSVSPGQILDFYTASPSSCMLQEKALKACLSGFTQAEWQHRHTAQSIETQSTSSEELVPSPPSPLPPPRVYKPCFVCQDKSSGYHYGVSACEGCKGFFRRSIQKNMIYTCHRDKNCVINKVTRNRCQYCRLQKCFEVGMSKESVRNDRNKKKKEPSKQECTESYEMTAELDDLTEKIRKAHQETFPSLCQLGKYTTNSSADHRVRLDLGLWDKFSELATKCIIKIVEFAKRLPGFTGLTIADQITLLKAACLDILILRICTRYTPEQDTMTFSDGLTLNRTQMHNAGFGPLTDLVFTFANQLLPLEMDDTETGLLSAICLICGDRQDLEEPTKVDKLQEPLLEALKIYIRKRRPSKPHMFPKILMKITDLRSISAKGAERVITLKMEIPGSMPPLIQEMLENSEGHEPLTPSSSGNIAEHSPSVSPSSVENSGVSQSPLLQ
The series is described as follows: Drug competition with (3H)retinoic acid binding, mRARβ. The note with it: read-out: percent reduction of binding of the (3H)retinoic acid, mRARβ; 1 μM drug; 5 nM [3H]RA.

Series [9] has as its system retinoic acid receptors α, β and γ. The series is described as follows: Competition with retinoic acid for retinoic acid receptors (RAR α, β, γ), overall. The series is classed as binding. Conditions: 1 μM drug.
The target of series [10] is T2, β-glucuronidase. The series is described as follows: Inhibition of β-glucuronidase mediated hydrolysis of 4-HPR-O-glucuronide. The series is classed as biochemical. The note with it: for IC50: 10% methanol as co-solvent, 4-HPR-O-glucuronide below 184.5 μM. The text has this: Chem. Soc., (1954), 76, 4872-4877.
Series [11] is described as follows: Acid stability, 0.1N methanolic HCl at 37° C. for 2 hours. The class given is physicochemical. On the procedure: To determine the stability of the C-glucopyranosiduronate linkage towards acidic conditions, samples of 4-HPR-O-glucuronide, 4-(retinamido)phenyl-C-glucuronide and 4-(retinamido)benzyl-C-glucuronide were treated with 0.1N methanolic HCl at 37° C. for 2 hours.

For orientation: Ki means a measure of affinity in units of concentration, obtained from inhibition or displacement. A high value points to lower affinity.

As to `CC1=C(/C=C/C(C)=C/C=C/C(C)=C/C(=O)NC2O[C@H](C(=O)O)[C@@H](O)[C@H](O)[C@H]2O)C(C)(C)CCC1` (stereo partly drawn) [1-(D-glucopyranosyluronosyl) retinamide], the acid stability result in [1] is “remained intact”. Also, the “effect on DMBA-induced mammary tumor development, in words” value in series [2] is “significantly prolonged the latency period of mammary cancer; also recorded: tumor induction was markedly delayed and reduced; also recorded: caused the largest reduction in multiple mammary tumors; also recorded: greater mammary tumor chemopreventive effect than does retinoic acid; also recorded: inhibit DMBA induced mammary tumor development”. The tumor latency in series [2] (15 mg DMBA oral) is listed as 64 days. In series [2] (110 days post intubation), this molecule came in with a tumor incidents of 50% and a tumor number/rat of 0.83 tumors per rat. Further, in series [3], affinity was put at a Ki of 0.28 µM. Also, the “hydrolysis by β-glucuronidase within twenty minutes” value in series [4] was “remained intact”.
For `CC1=C(/C=C/C(C)=C/C=C/C(C)=C/C(=O)Nc2ccc(C[C@@H]3O[C@H](C(=O)O)[C@@H](O)[C@H](O)[C@H]3O)cc2)C(C)(C)CCC1` [4-(retinamido)benzyl-C-glucuronide], the inhibition at 1 µM came out at 67% in [5], 78% in series [6] and 82% in [8]. The IC50 in [7] (Assay 1) is 6.5 µM; in [10], 236 µM. Also, the “growth inhibition of MCF-7 cells, in words” value in series [7] was “exhibit the best growth inhibition of the cells”. Besides, in series [9], the “competition with retinoic acid for the receptors, in words” value was “significantly compete with retinoic acid for the receptors”. Besides, in series [10], the “inhibition of β-glucuronidase mediated hydrolysis, in words” value is given as “slightly more effective than the 4-(retinamido)phenyl-C-glucuronide”. Moreover, the “acid hydrolysis (stability)” value in series [11] is “remained essentially intact”.
For `CC1=C(/C=C/C(C)=C/C=C/C(C)=C/C(=O)Nc2ccc([C@@H]3O[C@H](C(=O)O)[C@@H](O)[C@H](O)[C@H]3O)cc2)C(C)(C)CCC1` [4-(retinamido)phenyl-C-glucuronide], the inhibition at 1 µM in [5] was 48%; in series [6] it was 40%; in series [8] it was 47%. The IC50 in series [7] (Assay 3) was 50 µM; in series [10] it was 267 µM. In addition, the “growth inhibition of MCF-7 cells, in words” value in [7] was “potency consistent with its glucoside analogue”. In [9], the “competition with retinoic acid for the receptors, in words” value is given as “significantly compete with retinoic acid for the receptors”. In addition, in series [10], the “inhibition of β-glucuronidase mediated hydrolysis, in words” value is on record as “act as inhibitors of β-glucuronidase mediated hydrolysis”. In addition, the “acid hydrolysis (stability)” value in [11] is on record as “remained essentially intact”.
In [1] (HPLC), `CC1=C(/C=C/C(C)=C/C=C/C(C)=C/C(=O)O[C@@H]2O[C@H](C(=O)O)[C@@H](O)[C@H](O)[C@H]2O)C(C)(C)CCC1` [RAG, retinoyl β-glucuronide, reference compound] came in with a degraded at 2 h of around 50%. In addition, the “hydrolysis by β-glucuronidase within twenty minutes” value in series [4] is listed as “completely hydrolyzed”.
